{"source": "paper PMC12399242", "about": "(Acta Pharmaceutica Sinica. B, 2025)", "key": {"CYP3A4-T": {"target": "T1, CYP3A4-T (Homo sapiens, UniProt P08684)", "T1 construct": "An incubation system of human liver microsomes (20 μL, 1.5 mg/mL); from tissue; host or cells: human liver microsomes", "assay": "CYP enzyme inhibition assay, CYP3A4-T", "type": "in vitro ADME", "conditions": "human liver microsomes", "method": "(§1) An incubation system of human liver microsomes (20 μL, 1.5 mg/mL), 20 μL probe substrates, and 50 μL test compound in Tris (0.1 mol/L) was pre-incubated at 37 °C for 10 min, and then initiated by adding NADPH (10 μL, 10 mmol/L). The system was incubated for another 15 min and subsequently terminated by 100 μL MeCN containing internal standard (propranolol, nadolol). Finally, the sample was centrifugated to obtain the supernatant for LC‒MS/MS analysis."}, "HIV-1 L100I": {"system": "HIV-1 L100I", "assay": "Antiviral activity against HIV-1 mutant L100I in MT-4 cells", "type": "cell-based", "conditions": "Human immunodeficiency virus 1, MT4, read-out: EC50 L100I"}, "HIV-1 K103N": {"system": "HIV-1 K103N", "assay": "Antiviral activity against HIV-1 mutant K103N in MT-4 cells", "type": "cell-based", "conditions": "Human immunodeficiency virus 1, MT4, read-out: EC50 K103N"}, "HIV-1 mutant strains": {"system": "HIV-1 mutant strains", "assay": "Antiviral activity against panel of HIV-1 mutant strains (summary ranges)", "type": "cell-based"}, "HIV-1 Y188L": {"system": "HIV-1 Y188L", "assay": "Antiviral activity against HIV-1 mutant Y188L in MT-4 cells", "type": "cell-based", "conditions": "Human immunodeficiency virus 1, MT4, read-out: EC50 Y188L"}, "WT HIV-1 RT": {"target": "WT HIV-1 RT (Human immunodeficiency virus type 1 group M subtype B, UniProt P03366)", "assay": "Inhibition of WT HIV-1 RT polymerase activity", "protocol": "The anti-HIV-1 activity of A1–A24 and B1–B22 at the cellular or enzyme level were evaluated following our previously reported method[15]."}, "ICR mice": {"system": "ICR mice", "assay": "Acute toxicity assay in ICR mice", "type": "in vivo", "method": "A12 was suspended in PEG400/normal saline (80/20, v/v) to achieve a concentration of 100 mg/ml. Sixteen ICR mice (eight male/eight female, 18–22 g) were assigned into 4 groups randomly, and each group contained 4 male mice or 4 female mice (n = 4). […] Over the next two weeks, the mortality, body weight, and abnormal behaviors of these mice were monitored daily. All mice were dissected after blood collection on Day 14, and several vital organs were removed and then assessed for pathological damage by HE staining. The collected blood was submitted for blood biochemistry testing."}, "hERG channel": {"target": "T2, hERG channel (Homo sapiens, UniProt Q12809)", "T2 construct": "expressed in transfected cells; host or cells: CHO-hERG cells", "assay": "hERG inhibition assay (QPatch, CHO-hERG cells)", "type": "cell-based", "conditions": "automated QPatch, n = 3", "protocol": "CHO-hERG cells were cultured under the condition of 37 °C and 5% CO2. The culture medium was removed when the cell density grew to 60%–80%. Then, the cells were washed (PBS, 7 mL) and digested. After completion, culture medium (7 mL) was added for neutralization and then centrifuged to obtain the cells, which were subsequently resuspended into 5 mL of culture medium for automated Qpatch assays. The electrophysiology process was recorded using the QPatch instrument. The cells were clamped at an equilibrium potential of −80 mV. Voltage stimulation was conducted every 15 s, which concludes a 5 s, +40 mV depolarizing pulse and a 5 s, −50 mV repolarizing pulse. After 2 min of recording, extracellular fluid was given and recorded for 5 min. […] Each concentration was evaluated on 3 cells (n = 3)."}, "PK study in SD rats": {"assay": "PK study in SD rats", "type": "in vivo", "conditions": "male, Sprague-Dawley, plasma, SD rat; for half-life: mean ± SD, n = 3; for MRT last: read-out: MRT0–t; for MRT inf: read-out: MRT0–∞", "method": "All animal treatments were conducted using an approved protocol of Fudan University (2020CHEM-JS-009). A12 was dissolved in a mixture of DMSO/Solutol HS 15/normal saline (10/10/80, v/v/v). Six Sprague–Dawley rats (male, 180−220 g) were assigned into two groups (n = 3) randomly to receive i.v. (1 mg/kg) or p.o. administration (10 mg/kg) of A12. At the time points of 5, 15, 30 min, 1, 2, 4, 6, 8, 10, 12, and 24 h, blood samples were collected and centrifuged (4 °C, 4500 rpm, 10 min) to obtain plasma. Before LC‒MS/MS analysis, the plasma needs to be stored at −80 °C. Subsequently, 120 μL of MeCN containing internal standard was added to 30 μL of plasma. The mixture was shaken and centrifuged (4 °C, 10,000 rpm, 15 min) to afford the supernatant layer for LC‒MS/MS analysis. Finally, The WinNolin software was applied to calculate the pharmacokinetic parameters."}, "[1]": {"system": "HIV-1 K103N + Y181C (RES056)", "assay": "Antiviral activity against HIV-1 double mutant K103N + Y181C (RES056) in MT-4 cells", "type": "cell-based", "conditions": "Human immunodeficiency virus 1, MT4, read-out: EC50 K103N + Y181C"}, "CYP2C9": {"target": "T3, CYP2C9 (Homo sapiens, UniProt P11712)", "T3 construct": "An incubation system of human liver microsomes (20 μL, 1.5 mg/mL); from tissue; host or cells: human liver microsomes", "assay": "CYP enzyme inhibition assay, CYP2C9", "type": "in vitro ADME", "conditions": "human liver microsomes", "method": "as §1, with “The system was incubated for another 15 min and subsequently terminated by 100 μL MeCN containing internal standard (propranolol, nadolol).” left out"}, "HIV-1 E138K": {"system": "HIV-1 E138K", "assay": "Antiviral activity against HIV-1 mutant E138K in MT-4 cells", "type": "cell-based", "conditions": "Human immunodeficiency virus 1, MT4, read-out: EC50 E138K"}, "CYP3A4-M": {"target": "CYP3A4-M (Homo sapiens, UniProt P08684)", "sequence (P08684 whole entry)": "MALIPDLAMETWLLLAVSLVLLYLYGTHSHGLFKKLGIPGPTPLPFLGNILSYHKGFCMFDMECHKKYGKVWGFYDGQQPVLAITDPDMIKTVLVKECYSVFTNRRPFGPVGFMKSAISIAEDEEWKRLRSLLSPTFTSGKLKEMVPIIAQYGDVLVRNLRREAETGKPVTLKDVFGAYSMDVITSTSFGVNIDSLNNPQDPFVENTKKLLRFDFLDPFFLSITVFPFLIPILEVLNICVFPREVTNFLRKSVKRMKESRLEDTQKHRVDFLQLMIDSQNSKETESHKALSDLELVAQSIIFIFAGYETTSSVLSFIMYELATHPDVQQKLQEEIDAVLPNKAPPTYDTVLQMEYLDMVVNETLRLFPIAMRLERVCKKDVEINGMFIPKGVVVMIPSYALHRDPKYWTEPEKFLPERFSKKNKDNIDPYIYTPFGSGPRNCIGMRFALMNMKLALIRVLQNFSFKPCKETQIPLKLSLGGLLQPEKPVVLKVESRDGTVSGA", "assay": "CYP enzyme inhibition assay, CYP3A4-M", "type": "in vitro ADME", "design": "An incubation system of human liver microsomes (20 μL, 1.5 mg/mL); from tissue; host or cells: human liver microsomes", "conditions": "human liver microsomes", "method": "as §1, with “The system was incubated for another 15 min and subsequently terminated by 100 μL MeCN containing internal standard (propranolol, nadolol).” left out"}, "CYP2D6": {"target": "T4, CYP2D6 (Homo sapiens, UniProt P10635)", "T4 construct": "An incubation system of human liver microsomes (20 μL, 1.5 mg/mL); from tissue; host or cells: human liver microsomes", "T4 sequence (P10635 whole entry)": "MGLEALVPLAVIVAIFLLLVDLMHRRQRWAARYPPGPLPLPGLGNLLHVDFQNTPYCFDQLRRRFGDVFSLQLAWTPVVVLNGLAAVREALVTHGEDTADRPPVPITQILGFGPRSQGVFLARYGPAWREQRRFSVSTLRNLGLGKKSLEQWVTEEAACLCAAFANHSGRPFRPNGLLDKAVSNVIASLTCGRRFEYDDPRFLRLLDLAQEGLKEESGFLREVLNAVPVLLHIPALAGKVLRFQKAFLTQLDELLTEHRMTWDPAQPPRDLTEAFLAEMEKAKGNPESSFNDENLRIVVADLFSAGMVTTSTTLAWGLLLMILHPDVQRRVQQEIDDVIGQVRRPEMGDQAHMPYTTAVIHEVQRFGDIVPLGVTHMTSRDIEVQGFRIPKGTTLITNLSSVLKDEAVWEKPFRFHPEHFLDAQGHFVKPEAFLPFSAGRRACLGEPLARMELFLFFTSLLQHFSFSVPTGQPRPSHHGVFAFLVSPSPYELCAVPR", "assay": "CYP enzyme inhibition assay, CYP2D6", "type": "in vitro ADME", "conditions": "human liver microsomes; read-out: IC50 CYP2D6", "method": "as §1"}, "[2]": {"system": "six CYP isoenzymes (not named; range over all six)", "assay": "CYP inhibition, six isoenzymes (summary range)", "type": "in vitro ADME", "conditions": "human, human liver microsomes", "method": "as §1"}, "[3]": {"assay": "Human liver microsomal stability assay", "type": "in vitro ADME", "method": "A mixed system of human liver microsomes (0.5 mg/mL), MgCl2 (3 mmol/L), tested compound (1.0 μmol/L), and NADPH (1.0 mmol/L) in PBS (0.1 mol/L) was incubated at 37 °C. After 0, 5, 15, 30, 45, and 60 min, aliquots were sampled respectively and then terminated by adding methanol containing internal standard. After centrifugation using a Thermo Scientific Fresco 17 microcentrifuge (4 °C, 3800 rpm, 15 min), the supernatant was removed for LC‒MS/MS analysis."}}, "note": "“Also recorded” adds a separate entry of the source. Where two headings read alike, the source gives them in different places."}
{"molecule": "Cc1cc(-c2ccc(C#N)cc2)cc(C)c1Nc1nc(Nc2ccc(C#N)cc2)ncc1F", "note": "[A12, 4′-((2-((4-Cyanophenyl)amino)-5-fluoropyrimidin-4-yl)amino)-3′,5′-dimethyl-[1,1′-biphenyl]-4-carbonitrile]", "values": [{"measurement": "IC50", "setting": "CYP3A4-T", "result": "> 25000", "unit": "nM"}, {"measurement": "EC50", "setting": "HIV-1 L100I", "result": "3 ± 0.5", "unit": "nM"}, {"measurement": "EC50", "setting": "HIV-1 K103N", "result": "1.7 ± 0.5", "unit": "nM"}, {"measurement": "EC50", "setting": "HIV-1 mutant strains; Human immunodeficiency virus 1, read-out: EC50 mutant strains L100I, K103N, Y181C, and E138K", "result": "1.7 to 7.1", "unit": "nM"}, {"measurement": "EC50", "setting": "HIV-1 mutant strains; Human immunodeficiency virus 1, read-out: EC50 seven mutant strains", "result": "1.7 to 157", "unit": "nM"}, {"measurement": "EC50", "setting": "HIV-1 Y188L", "result": "60 ± 9.2", "unit": "nM"}, {"measurement": "IC50", "setting": "WT HIV-1 RT", "result": "41 ± 6.9", "unit": "nM"}, {"measurement": "HE staining of vital organs (brain, heart, liver, spleen, lung, kidney)", "setting": "ICR mice; 2 g/kg i.g., Day 14", "result": "does not show any discernible pathological alteration in vital organs; also recorded: no notable pathological alterations were detected in the vital organs"}, {"measurement": "blood biochemical parameters (ALT, AST, CREA, UREA, CKMB)", "setting": "ICR mice; 2 g/kg i.g., fourteen days after administration, vs control", "result": "no significant differences in blood biochemical parameters"}, {"measurement": "mortality", "setting": "ICR mice; male and female, single dose 2 g/kg i.g., 14 days", "result": "No instances of mortality were recorded"}, {"measurement": "acute toxicity, overall", "setting": "ICR mice; single dose 2 g/kg", "result": "excellent tolerance at doses reaching 2 g/kg, without any manifestation of immediate toxicity"}, {"measurement": "abnormal behavior", "setting": "ICR mice; single dose 2 g/kg i.g., 14 days", "result": "no noteworthy deviations in behavior were detected"}, {"measurement": "body weight growth", "setting": "ICR mice; single dose 2 g/kg i.g., vs control group", "result": "growth patterns similar to that shown by the control group"}, {"measurement": "IC50", "setting": "hERG channel", "result": "> 40000", "unit": "nM"}, {"measurement": "AUC(0-inf)", "setting": "PK study in SD rats; iv, 1.0 mg/kg i.v.", "result": "3060 ± 139", "unit": "ng·h/mL"}, {"measurement": "AUC(0-t)", "setting": "PK study in SD rats; iv, 1.0 mg/kg i.v.", "result": "3000 ± 142", "unit": "ng·h/mL"}, {"measurement": "Cmax", "setting": "PK study in SD rats; iv, 1.0 mg/kg i.v.", "result": "2350 ± 178", "unit": "ng/mL"}, {"measurement": "Tmax", "setting": "PK study in SD rats; iv, 1.0 mg/kg i.v.", "result": 0.0833, "unit": "h"}, {"measurement": "half-life", "setting": "PK study in SD rats; iv, 1.0 mg/kg i.v.", "result": "5.53 ± 2.04", "unit": "h"}, {"measurement": "MRT last", "setting": "PK study in SD rats; iv, 1.0 mg/kg i.v.", "result": "3.25 ± 0.575", "unit": "h"}, {"measurement": "MRT inf", "setting": "PK study in SD rats; iv, 1.0 mg/kg i.v.", "result": "3.89 ± 1.03", "unit": "h"}, {"measurement": "bioavailability", "setting": "PK study in SD rats; oral, 10.0 mg/kg p.o. vs 1.0 mg/kg i.v., read-out: F (oral bioavailability)", "result": "29.2 ± 6", "unit": "%"}, {"measurement": "AUC(0-inf)", "setting": "PK study in SD rats; po, 10.0 mg/kg p.o.", "result": "8930 ± 1850", "unit": "ng·h/mL"}, {"measurement": "AUC(0-t)", "setting": "PK study in SD rats; po, 10.0 mg/kg p.o.", "result": "7340 ± 1890", "unit": "ng·h/mL"}, {"measurement": "Cmax", "setting": "PK study in SD rats; po, 10.0 mg/kg p.o.", "result": "1390 ± 422", "unit": "ng/mL"}, {"measurement": "Tmax", "setting": "PK study in SD rats; po, 10.0 mg/kg p.o.", "result": 1, "unit": "h"}, {"measurement": "half-life", "setting": "PK study in SD rats; po, 10.0 mg/kg p.o.", "result": "13.6 ± 6.64", "unit": "h"}, {"measurement": "MRT last", "setting": "PK study in SD rats; po, 10.0 mg/kg p.o.", "result": "6.18 ± 0.306", "unit": "h"}, {"measurement": "MRT inf", "setting": "PK study in SD rats; po, 10.0 mg/kg p.o.", "result": "13.5 ± 6.49", "unit": "h"}, {"measurement": "EC50", "setting": "[1]", "result": "44 ± 18", "unit": "nM"}, {"measurement": "IC50", "setting": "CYP2C9", "result": 6990, "unit": "nM"}, {"measurement": "EC50", "setting": "HIV-1 E138K", "result": "6 ± 0.5", "unit": "nM"}, {"measurement": "IC50", "setting": "CYP3A4-M", "result": "> 25000", "unit": "nM"}, {"measurement": "IC50", "setting": "CYP2D6", "result": 14500, "unit": "nM"}, {"measurement": "IC50 at 15 min", "setting": "[2]", "result": "6990 to 25000", "unit": "nM"}, {"measurement": "half-life at 1 μmol/L", "setting": "[3]; human liver microsomes 0.5 mg/mL, 1.0 μmol/L compound", "result": 0.405, "unit": "h"}, {"measurement": "CLint scaled at 1 μmol/L", "setting": "[3]; human liver microsomes, scaled to liver", "result": 51.3, "unit": "mL/min/kg"}, {"measurement": "microsomal CLint at 1 μmol/L", "setting": "[3]; human, microsomes", "result": 57, "unit": "µL/min/mg"}]}
